These are literature values, as cited in patent US9738710B2, “Method of treating a patient for pain by administering an anti-ion channel antibody” (UCB Biopharma SPRL, priority 2009, dated 2017).

Molecules are shown by their SMILES. Like-named read-outs stand apart in the source and are kept apart here.

For data set [1], the target named is T1, hNav1.5 (Homo sapiens, UniProt Q14524). The note with it: read-out: FRET-based Assay hNav1.5.
Data set [2] deals with T2, hNav1.7 (Homo sapiens, UniProt Q15858). The following applies: read-out: FRET-based Assay hNav1.7.
Another data set addresses hNav1.8 (Homo sapiens, UniProt Q9Y5Y9). The following applies: read-out: FRET-based Assay hNav1.8.
In data set [3] the target is T1, hNav1.5. The note with it: read-out: Electrophysiology hNav1.5.
Data set [4] deals with T2, hNav1.7. The note with it: read-out: Electrophysiology hNav1.7.
For data set [5] the following is noted: neuropathic pain patients (Dworkin, 2002).

T2 sequence (Q15858 whole entry): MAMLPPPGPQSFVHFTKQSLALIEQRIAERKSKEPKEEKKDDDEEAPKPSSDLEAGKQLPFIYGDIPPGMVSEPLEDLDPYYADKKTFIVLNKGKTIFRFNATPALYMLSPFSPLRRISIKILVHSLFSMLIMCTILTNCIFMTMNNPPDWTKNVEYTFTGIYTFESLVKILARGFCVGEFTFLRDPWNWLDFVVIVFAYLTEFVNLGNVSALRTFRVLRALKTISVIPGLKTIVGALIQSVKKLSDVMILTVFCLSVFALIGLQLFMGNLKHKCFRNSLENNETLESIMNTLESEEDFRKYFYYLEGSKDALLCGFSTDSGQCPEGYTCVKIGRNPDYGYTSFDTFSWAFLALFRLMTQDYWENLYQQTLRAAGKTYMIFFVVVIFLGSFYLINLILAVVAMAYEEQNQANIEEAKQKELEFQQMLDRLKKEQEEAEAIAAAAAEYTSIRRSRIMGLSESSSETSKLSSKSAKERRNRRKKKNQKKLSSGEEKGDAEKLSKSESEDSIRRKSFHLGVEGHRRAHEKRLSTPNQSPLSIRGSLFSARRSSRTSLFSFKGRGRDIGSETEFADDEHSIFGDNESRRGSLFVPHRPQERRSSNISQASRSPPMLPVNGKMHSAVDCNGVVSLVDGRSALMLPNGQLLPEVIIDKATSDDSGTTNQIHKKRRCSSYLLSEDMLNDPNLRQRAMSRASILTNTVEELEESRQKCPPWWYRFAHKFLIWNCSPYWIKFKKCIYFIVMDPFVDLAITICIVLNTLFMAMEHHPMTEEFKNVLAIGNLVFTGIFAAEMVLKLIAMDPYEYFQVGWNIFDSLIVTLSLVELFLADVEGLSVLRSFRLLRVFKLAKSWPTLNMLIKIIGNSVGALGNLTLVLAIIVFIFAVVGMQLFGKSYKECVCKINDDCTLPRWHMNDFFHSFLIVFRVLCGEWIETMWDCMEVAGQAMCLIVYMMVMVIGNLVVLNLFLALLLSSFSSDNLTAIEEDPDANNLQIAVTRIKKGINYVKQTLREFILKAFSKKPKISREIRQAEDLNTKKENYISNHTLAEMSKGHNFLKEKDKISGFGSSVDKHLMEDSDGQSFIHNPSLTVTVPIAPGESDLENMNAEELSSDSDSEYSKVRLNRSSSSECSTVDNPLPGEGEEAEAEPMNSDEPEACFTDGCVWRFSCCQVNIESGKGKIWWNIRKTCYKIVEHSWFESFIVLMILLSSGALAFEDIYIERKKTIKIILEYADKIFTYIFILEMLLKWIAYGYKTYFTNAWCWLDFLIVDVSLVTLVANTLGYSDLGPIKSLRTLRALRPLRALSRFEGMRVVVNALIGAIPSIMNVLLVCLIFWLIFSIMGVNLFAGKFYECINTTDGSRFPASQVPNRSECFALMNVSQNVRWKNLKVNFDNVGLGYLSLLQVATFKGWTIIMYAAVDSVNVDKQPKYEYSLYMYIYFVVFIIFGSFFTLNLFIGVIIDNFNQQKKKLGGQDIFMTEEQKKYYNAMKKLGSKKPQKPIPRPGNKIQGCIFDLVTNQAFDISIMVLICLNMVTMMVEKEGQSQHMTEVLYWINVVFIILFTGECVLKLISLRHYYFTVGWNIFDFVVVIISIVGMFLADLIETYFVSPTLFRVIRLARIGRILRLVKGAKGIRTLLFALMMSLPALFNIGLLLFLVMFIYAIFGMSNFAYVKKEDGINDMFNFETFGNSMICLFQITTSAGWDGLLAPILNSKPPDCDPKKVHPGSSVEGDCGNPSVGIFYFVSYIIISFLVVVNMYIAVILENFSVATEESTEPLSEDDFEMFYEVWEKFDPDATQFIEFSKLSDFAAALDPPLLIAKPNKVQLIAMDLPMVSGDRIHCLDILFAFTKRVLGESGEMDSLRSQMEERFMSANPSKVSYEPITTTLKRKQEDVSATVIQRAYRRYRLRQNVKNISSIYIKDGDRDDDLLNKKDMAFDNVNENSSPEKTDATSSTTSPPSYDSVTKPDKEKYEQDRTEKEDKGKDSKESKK
T1 sequence (Q14524 whole entry): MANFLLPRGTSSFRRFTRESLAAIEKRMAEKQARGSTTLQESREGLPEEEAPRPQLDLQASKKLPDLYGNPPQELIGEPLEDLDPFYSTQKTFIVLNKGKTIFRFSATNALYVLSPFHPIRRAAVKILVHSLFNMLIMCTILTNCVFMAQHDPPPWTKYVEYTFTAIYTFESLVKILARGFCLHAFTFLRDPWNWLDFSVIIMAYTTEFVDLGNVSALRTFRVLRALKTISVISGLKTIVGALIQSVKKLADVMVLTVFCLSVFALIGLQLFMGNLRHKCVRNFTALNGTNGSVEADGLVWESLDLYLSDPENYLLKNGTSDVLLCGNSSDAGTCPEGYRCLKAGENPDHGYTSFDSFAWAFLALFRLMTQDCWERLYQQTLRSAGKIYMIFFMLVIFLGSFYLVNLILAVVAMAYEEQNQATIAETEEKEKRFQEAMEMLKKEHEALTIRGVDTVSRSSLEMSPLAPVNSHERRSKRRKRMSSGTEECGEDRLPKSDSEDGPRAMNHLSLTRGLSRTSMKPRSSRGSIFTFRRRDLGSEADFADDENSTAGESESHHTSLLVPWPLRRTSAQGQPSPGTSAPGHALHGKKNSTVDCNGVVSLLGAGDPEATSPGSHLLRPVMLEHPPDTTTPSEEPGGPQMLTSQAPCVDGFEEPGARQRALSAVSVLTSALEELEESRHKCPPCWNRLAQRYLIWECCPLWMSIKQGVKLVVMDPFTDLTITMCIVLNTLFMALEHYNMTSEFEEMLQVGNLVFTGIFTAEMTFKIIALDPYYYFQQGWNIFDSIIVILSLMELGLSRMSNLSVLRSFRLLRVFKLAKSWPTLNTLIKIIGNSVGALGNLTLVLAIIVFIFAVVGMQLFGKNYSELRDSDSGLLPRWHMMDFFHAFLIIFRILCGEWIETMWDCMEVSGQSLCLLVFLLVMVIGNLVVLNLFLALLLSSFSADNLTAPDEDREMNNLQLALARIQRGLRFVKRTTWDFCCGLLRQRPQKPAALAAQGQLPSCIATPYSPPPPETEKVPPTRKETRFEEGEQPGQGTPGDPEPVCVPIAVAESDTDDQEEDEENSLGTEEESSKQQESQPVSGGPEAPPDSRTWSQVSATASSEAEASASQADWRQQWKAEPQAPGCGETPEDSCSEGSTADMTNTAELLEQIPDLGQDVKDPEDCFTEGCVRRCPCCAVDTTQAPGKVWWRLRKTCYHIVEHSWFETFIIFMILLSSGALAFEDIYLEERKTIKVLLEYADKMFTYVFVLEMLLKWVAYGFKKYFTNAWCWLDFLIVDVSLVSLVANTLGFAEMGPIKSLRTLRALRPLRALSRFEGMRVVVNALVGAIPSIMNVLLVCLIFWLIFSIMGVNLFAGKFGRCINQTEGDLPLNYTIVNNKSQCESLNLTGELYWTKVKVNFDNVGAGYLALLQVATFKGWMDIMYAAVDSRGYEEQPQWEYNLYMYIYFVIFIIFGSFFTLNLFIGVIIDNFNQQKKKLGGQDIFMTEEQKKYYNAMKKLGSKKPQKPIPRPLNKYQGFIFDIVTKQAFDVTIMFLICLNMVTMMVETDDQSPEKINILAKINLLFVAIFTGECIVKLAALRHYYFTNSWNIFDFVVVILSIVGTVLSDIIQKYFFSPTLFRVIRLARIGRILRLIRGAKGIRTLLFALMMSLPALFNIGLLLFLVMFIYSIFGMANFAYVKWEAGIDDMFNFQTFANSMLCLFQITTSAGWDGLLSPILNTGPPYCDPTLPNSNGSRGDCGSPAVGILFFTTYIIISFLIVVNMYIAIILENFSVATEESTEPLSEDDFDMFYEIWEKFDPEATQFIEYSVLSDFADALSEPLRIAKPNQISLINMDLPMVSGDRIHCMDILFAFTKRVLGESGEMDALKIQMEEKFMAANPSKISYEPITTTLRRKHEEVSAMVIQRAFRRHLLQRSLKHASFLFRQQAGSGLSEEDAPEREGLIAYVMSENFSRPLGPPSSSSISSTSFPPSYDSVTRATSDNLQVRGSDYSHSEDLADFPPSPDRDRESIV

For `CC(C)N1C(=O)C(NC(=O)C(Cc2ccccc2F)NC(=O)c2ccc(F)cc2C(F)(F)F)CCc2cc(Cl)ccc21` [N—[(R)-1-(R)-7-chloro-1-isopropyl-2-oxo-2,3,4,5-tetrahydro-1H-benzo[b]azepine-3-ylcarbamoyl)-2-(2-fluorophenyl)-ethyl]-4-fluoro-2-trifluoromethyl-benzamide], the IC50 on hNav1.5 [1] was 180 nM; on hNav1.7 [2], 30 nM; at hNav1.8 it was 300 nM; on hNav1.5 [3], 4300 nM; at hNav1.7 [4] it was 550 nM.
As to `NCC1(CC(=O)O)CCCCC1` [gabapentin], in data set [5], the reduction of pain is at most 50% and the “share of patients with that pain reduction” value is listed as “about 40%”.
